This is an account of results in patent US6770654B2, “Indole derivatives and use thereof in medicines” (Toray Industries, Inc., priority 2000, dated 2004).

Counter-ions that a name gives are not always drawn.

The target of one data set is T1, δ opioid receptor (Mus musculus, UniProt P32300).
T1 construct: Each of the vas deferens isolated from the mice was hung in a Magnus tube; from tissue; host or cells: vas deferens of male ddy strain mice
Description: Mouse vas deferens (MVD): antagonism against the δ agonist DPDPE, pA2 by Schild method. It is filed as cell-based. The protocol: Using mouse vas deferens (MVD), the compounds were examined for antagonism against opioid receptor agonists, i.e., morphine (μ), DPDPE (δ), and U50,488H (κ).
Male ddy strain mice were used in this experiment. Each of the vas deferens isolated from the mice was hung in a Magnus tube which was maintained at 37° C., filled with a Krebes-Henseleit solution (NaCl 118 mM; KCl 4.7 mM; CaCl2 2.5 mM; KH2PO4 1.1 mM; NaHCO3 25 mM; glucose 11 mM), and aerated with 5% carbon dioxide and 95% oxygen. Electric stimulation was applied through upper and lower ring-shaped platinum electrodes at 0.1 Hz and 5.0 mS. Tissue contraction was recorded on a polygraph using an Isometric Transducer.
Morphine, DPDPE, and U50,488H were added in a cumulative manner to determine the IC50 values (concentration for 50% inhibition of contraction induced by electric stimulation). Next, 10 nM of a sample compound was added to the system beforehand, and 20 minutes later, morphine, DPDPE, and U50,488H were added in a cumulative manner. According to the above procedure, the ratio of the IC50 values of morphine, DPDPE, and U50,488H in the presence of the sample compound to that in its absence was determined, and the pA2 values were calculated in accordance with the Schild et al.'s method (Schild, H. O., Br. J. Pharamacol. Chemother. 4, 277 (1949)).

T1 sequence (P32300 whole entry): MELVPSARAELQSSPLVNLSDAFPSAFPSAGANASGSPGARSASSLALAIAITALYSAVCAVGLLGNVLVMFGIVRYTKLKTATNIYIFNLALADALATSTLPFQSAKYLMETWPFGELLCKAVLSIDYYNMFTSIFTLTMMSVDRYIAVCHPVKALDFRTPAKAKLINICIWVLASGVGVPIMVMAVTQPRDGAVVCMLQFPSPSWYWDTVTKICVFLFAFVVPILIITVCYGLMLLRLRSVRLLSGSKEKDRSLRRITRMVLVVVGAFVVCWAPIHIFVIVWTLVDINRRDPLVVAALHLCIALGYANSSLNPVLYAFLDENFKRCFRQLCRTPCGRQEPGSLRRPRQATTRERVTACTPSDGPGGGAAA

As usually defined, the melting point is the temperature, or range, at which the solid turns liquid. For the molecule `Oc1ccc2c3c1O[C@H]1c4c(c5cc(F)cc6c5n4CC[C@@H]6O)C[C@@]4(O)[C@@H](C2)N(CC2CC2)CC[C@]314` (as salt: methanesulfonate) [Compound 3, 17-cyclopropylmethyl-6,7-didehydro-4,5α-epoxy-8′-fluoro-5′,6′-dihydro-4′H-pyrrolo[3,2,1-ij]quinolino[2′,1′:6,7]-morphinan-3,6′β,14β-triol], the melting point was 240 °C (dec.). Broadly, the Kb is the affinity of an antagonist, worked out from how it opposes an agonist. Read a low Kb as higher antagonist affinity. At δ opioid receptor, `Oc1ccc2c3c1O[C@H]1c4c(c5cc(F)cc6c5n4CC[C@@H]6O)C[C@@]4(O)[C@@H](C2)N(CC2CC2)CC[C@]314` [Compound 3, 17-cyclopropylmethyl-6,7-didehydro-4,5α-epoxy-8′-fluoro-5′,6′-dihydro-4′H-pyrrolo[3,2,1-ij]quinolino[2′,1′:6,7]-morphinan-3,6′β,14β-triol] had a Kb of 3.98 nM.

Consider `Oc1ccc2c3c1O[C@H]1c4c(c5c(O)c(F)cc6c5n4CCC6)C[C@@]4(O)[C@@H](C2)N(CC2CC2)CC[C@]314` (as salt: methanesulfonate), for which the melting point is 280 °C (dec.).
